Reference: PubChem BioAssay (NCI)
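Exposure lasted 48 hours, with cells grown in 96-well plates and compounds tested at five concentrations. At the TGI there is no net growth.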

Assays:
Assay in all cases: NCI-60 cell line screen, 48 h
[1] = tested on: SF-539 CNS
[2] = tested on: HS 578T breast
[3] = tested on: CAKI-1 renal
[4] = tested on: SK-MEL-5 melanoma
[5] = tested on: BT-549 breast
[6] = tested on: MALME-3M melanoma
[7] = tested on: HT29 colon
[8] = tested on: COLO 205 colon
[9] = tested on: UACC-257 melanoma
[10] = tested on: A498 renal
[11] = tested on: T-47D breast
[12] = tested on: LOX IMVI melanoma
[13] = tested on: IGROV1 ovarian
[14] = tested on: NCI/ADR-RES ovarian
[15] = tested on: UACC-62 melanoma
[16] = tested on: SNB-19 CNS
[17] = tested on: DU-145 prostate
[18] = tested on: SR leukemia
[19] = tested on: 786-0 renal
[20] = tested on: UO-31 renal
[21] = tested on: PC-3 prostate
[22] = tested on: A549 NSCLC
[23] = tested on: SF-268 CNS
[24] = tested on: KM12 colon
[25] = tested on: SK-MEL-28 melanoma
[26] = tested on: MDA-MB-231 breast
[27] = tested on: EKVX NSCLC
[28] = tested on: M14 melanoma
[29] = tested on: MDA-N
[30] = tested on: NCI-H522 lung
[31] = tested on: RPMI-8226 leukemia
[32] = tested on: SK-MEL-2 melanoma
[33] = tested on: CCRF-CEM leukemia
[34] = tested on: HL-60(TB) leukemia
[35] = tested on: SF-295 CNS
[36] = tested on: SK-OV-3 ovarian
[37] = tested on: SN12C renal
[38] = tested on: OVCAR-3 ovarian
[39] = tested on: TK-10 renal
[40] = tested on: OVCAR-5 ovarian
[41] = tested on: NCI-H23 lung
[42] = tested on: HOP-62 NSCLC
[43] = tested on: NCI-H460 lung
[44] = tested on: ACHN renal
[45] = tested on: SW-620 colon
[46] = tested on: HCT-15 colon
[47] = tested on: MOLT-4 leukemia
[48] = tested on: OVCAR-8 ovarian
[49] = tested on: MDA-MB-435
[50] = tested on: SNB-75 CNS
[51] = tested on: HOP-92 NSCLC
[52] = tested on: OVCAR-4 ovarian
[53] = tested on: K-562 leukemia
[54] = tested on: U251 CNS

Cc1c2ccccc2nc2[nH]c3ccncc3c12 was tested, and the TGI [1] was > 100 µM, the TGI [2] was > 100 µM and the TGI [3] was 96.7 µM. For the same molecule, the TGI [4] was 95 µM, the TGI [5] was > 100 µM and the TGI [6] was 66.6 µM. The TGI [7] was > 100 µM, the TGI [8] was > 100 µM and the TGI [9] was > 100 µM. The TGI [10] was > 100 µM, the TGI [11] was > 100 µM and the TGI [12] was 45.4 µM. The TGI [13] was > 100 µM, the TGI [14] was 72.4 µM and the TGI [15] was 74.8 µM. For the same molecule, the TGI [16] was > 100 µM, the TGI [17] was > 100 µM and the TGI [18] was > 100 µM. For the same molecule, the TGI [19] was 71.5 µM, the TGI [20] was > 100 µM and the TGI [21] was > 100 µM. For the same molecule, the TGI [22] was > 100 µM, the TGI [23] was 32.8 µM and the TGI [24] was > 100 µM. The TGI [25] was > 100 µM, the TGI [26] was > 100 µM and the TGI [27] was 98.5 µM. The TGI [28] was 85.7 µM, the TGI [29] was > 100 µM and the TGI [30] was > 100 µM. The TGI [31] was 77.7 µM, the TGI [32] was > 100 µM and the TGI [33] was 10.9 µM. The TGI [34] was > 100 µM, the TGI [35] was > 100 µM and the TGI [36] was > 100 µM. The TGI [37] was 85.1 µM, the TGI [38] was 91.9 µM and the TGI [39] was 59.4 µM. For the same molecule, the TGI [40] was 95 µM, the TGI [41] was 74.3 µM and the TGI [42] was 62 µM. For the same molecule, the TGI [43] was 39.8 µM, the TGI [44] was 77.2 µM and the TGI [45] was > 100 µM. For the same molecule, the TGI [46] was > 100 µM, the TGI [47] was > 100 µM and the TGI [48] was > 100 µM. For the same molecule, the TGI [49] was > 100 µM, the TGI [50] was > 100 µM and the TGI [51] was 79.6 µM. The TGI [52] was > 100 µM, the TGI [53] was > 100 µM and the TGI [54] was > 100 µM.
